Reference: ChEMBL document CHEMBL3352495, “Discovery of the 1,7-diazacarbazole class of inhibitors of checkpoint kinase 1” (Bioorg Med Chem Lett, 2014)

Tests used:
Type in all cases: ADME, organism-based
[1] = AUC in CD1 mouse at 0.5 mg/kg, iv; parameters: dose 0.5 mg/kg, route intravenous; settings: plasma
[2] = AUC in CD1 mouse at 5 mg/kg, po administered as solution; parameters: dose 5 mg/kg, route oral; settings: plasma
[3] = AUC in CD1 mouse at 5 mg/kg, po administered as suspension; parameters: dose 5 mg/kg, route oral; settings: plasma
[4] = AUC in NCR mouse at 25 mg/kg, po administered as solution; parameters: dose 25 mg/kg, route oral; settings: plasma
[5] = AUC in NCR mouse at 25 mg/kg, po administered as suspension; parameters: dose 25 mg/kg, route oral; settings: plasma
[6] = AUC in Sprague-Dawley rat at 1 mg/kg, iv; parameters: dose 1 mg/kg, route intravenous; settings: plasma
[7] = AUC in Sprague-Dawley rat at 5 mg/kg, po administered as solution; parameters: dose 5 mg/kg, route oral; settings: plasma
Mus musculus [8] = test: Dose normalized AUC in CD1 mouse at 0.5 mg/kg, iv; parameters: dose 0.5 mg/kg, route intravenous; settings: in vivo
Mus musculus [9] = test: Dose normalized AUC in CD1 mouse at 5 mg/kg, po administered as solution; parameters: dose 5 mg/kg, route oral; settings: in vivo
Mus musculus [10] = test: Dose normalized AUC in CD1 mouse at 5 mg/kg, po administered as suspension; parameters: dose 5 mg/kg, route oral; settings: in vivo
Mus musculus [11] = test: Dose normalized AUC in NCR mouse at 25 mg/kg, po administered as solution; parameters: dose 25 mg/kg, route oral; settings: in vivo
Mus musculus [12] = test: Dose normalized AUC in NCR mouse at 25 mg/kg, po administered as suspension; parameters: dose 25 mg/kg, route oral; settings: in vivo
Rattus norvegicus [13] = test: Dose normalized AUC in Sprague-Dawley rat at 1 mg/kg, iv; parameters: dose 1 mg/kg, route intravenous; settings: in vivo
Rattus norvegicus [14] = test: Dose normalized AUC in Sprague-Dawley rat at 5 mg/kg, po administered as solution; parameters: dose 5 mg/kg, route oral; settings: in vivo
[15] = Clearance in CD1 mouse at 0.5 mg/kg, iv; parameters: dose 0.5 mg/kg, route intravenous; settings: in vivo
[16] = Clearance in Sprague-Dawley rat at 1 mg/kg, iv; parameters: dose 1 mg/kg, route intravenous; settings: in vivo
[17] = Half life in CD1 mouse at 0.5 mg/kg, iv; parameters: dose 0.5 mg/kg, route intravenous; settings: in vivo
[18] = Half life in CD1 mouse at 5 mg/kg, po administered as solution; parameters: dose 5 mg/kg, route oral; settings: in vivo
[19] = Half life in CD1 mouse at 5 mg/kg, po administered as suspension; parameters: dose 5 mg/kg, route oral; settings: in vivo
[20] = Half life in NCR mouse at 25 mg/kg, po administered as solution; parameters: dose 25 mg/kg, route oral; settings: in vivo
[21] = Half life in NCR mouse at 25 mg/kg, po administered as suspension; parameters: dose 25 mg/kg, route oral; settings: in vivo
[22] = Half life in Sprague-Dawley rat at 1 mg/kg, iv; parameters: dose 1 mg/kg, route intravenous; settings: in vivo
[23] = Half life in Sprague-Dawley rat at 5 mg/kg, po administered as solution; parameters: dose 5 mg/kg, route oral; settings: in vivo
[24] = Oral bioavailability in CD1 mouse at 5 mg/kg administered as solution; settings: in vivo
[25] = Oral bioavailability in CD1 mouse at 5 mg/kg administered as suspension; settings: in vivo
[26] = Oral bioavailability in NCR mouse at 25 mg/kg administered as solution; settings: in vivo
[27] = Oral bioavailability in NCR mouse at 25 mg/kg administered as suspension; settings: in vivo
[28] = Oral bioavailability in Sprague-Dawley rat at 5 mg/kg administered as solution; settings: in vivo
[29] = Cmax in CD1 mouse at 5 mg/kg, po administered as solution; parameters: dose 5 mg/kg, route oral; settings: in vivo
[30] = Cmax in CD1 mouse at 5 mg/kg, po administered as suspension; parameters: dose 5 mg/kg, route oral; settings: in vivo
[31] = Cmax in NCR mouse at 25 mg/kg, po administered as solution; parameters: dose 25 mg/kg, route oral; settings: in vivo
[32] = Cmax in NCR mouse at 25 mg/kg, po administered as suspension; parameters: dose 25 mg/kg, route oral; settings: in vivo
[33] = Cmax in Sprague-Dawley rat at 5 mg/kg, po administered as solution; parameters: dose 5 mg/kg, route oral; settings: in vivo

SMILES: CN1CCN(c2ccc(-c3cnc4[nH]c5cnc(C#N)cc5c4c3)cc2)CC1
- AUC [1]: 0.34 µM·h
- AUC [2]: 1.85 µM·h
- AUC [3]: 1.72 µM·h
- AUC [4]: 8.46 µM·h
- AUC [5]: 9.37 µM·h
- AUC [6]: 1.81 µM·h
- AUC [7]: 5.64 µM·h
- AUC/dose (Mus musculus [8]): 0.25 kg·h/L
- AUC/dose (Mus musculus [9]): 0.14 kg·h/L
- AUC/dose (Mus musculus [10]): 0.13 kg·h/L
- AUC/dose (Mus musculus [11]): 0.13 kg·h/L
- AUC/dose (Mus musculus [12]): 0.14 kg·h/L
- AUC/dose (Rattus norvegicus [13]): 0.67 kg·h/L
- AUC/dose (Rattus norvegicus [14]): 0.42 kg·h/L
- clearance [15]: 67 mL/min/kg
- clearance [16]: 27 mL/min/kg
- half-life [17]: 5.8 h
- half-life [18]: 1.6 h
- half-life [19]: 2.9 h
- half-life [20]: 2.1 h
- half-life [21]: 4 h
- half-life [22]: 1.8 h
- half-life [23]: 2.3 h
- bioavailability [24]: 54%
- bioavailability [25]: 50%
- bioavailability [26]: 50%
- bioavailability [27]: 55%
- bioavailability [28]: 62%
- Cmax [29]: 450 nM
- Cmax [30]: 200 nM
- Cmax [31]: 2510 nM
- Cmax [32]: 910 nM
- Cmax [33]: 930 nM
